From patent US9655887B2, “Pharmaceutical composition and the use thereof, and application regime of said pharmaceutical composition for on-demand contraception” (BAYER PHARMA AKTIENGESELLSCHAFT, priority 2013, dated 2017)
Marks after values point to notes of the source that are not given here. One block for each molecule: values may come before it.

What was measured:
[1] = target: EP2 subtype of the human PGE2 receptor (hEP2 receptor) (Homo sapiens, UniProt P43116); test: cAMP antagonism test, human prostaglandin E2 (subtype EP2) receptor signal; assay type: cell-based
Sequence of EP2 subtype of the human PGE2 receptor (hEP2 receptor) (P43116 whole entry): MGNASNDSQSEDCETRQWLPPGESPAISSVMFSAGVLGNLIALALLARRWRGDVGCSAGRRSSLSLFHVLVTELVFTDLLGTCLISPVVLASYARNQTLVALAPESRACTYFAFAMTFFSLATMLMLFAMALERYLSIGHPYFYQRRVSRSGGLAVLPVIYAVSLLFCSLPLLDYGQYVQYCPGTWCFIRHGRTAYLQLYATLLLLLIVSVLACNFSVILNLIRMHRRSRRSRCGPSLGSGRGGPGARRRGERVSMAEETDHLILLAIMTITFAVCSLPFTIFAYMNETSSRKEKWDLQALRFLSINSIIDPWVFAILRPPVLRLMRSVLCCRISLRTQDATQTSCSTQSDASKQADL
Procedure, shortened: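 Cells (625000 cells/ml, mixed with cAMP-d2) were preincubated 20 min at RT with compound ([…]). They were then stimulated 60 min at RT with a 3× PGE2 solution (1.5 nM) in PBS-IBMX and lysed for 20 min. cAMP was read by HTRF as the 665/620 nm ratio ×10000, with antagonism seen as a rise in FRET signal.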

[2] = test system: fertilizability of oocytes or cumulus-oocyte complexes; test: In-vivo effect on postovulatory in-vitro fertilization in the mouse (2-cell embryos); design: species or system mice (strain: B6D2F1); conditions: vehicle 36.3 ± 9.5
Excerpt: 7. In-Vivo Effect on Postovulatory In-Vitro Fertilization in the Mouse
Substances can influence fertility by lowering fertilizability of oocytes or cumulus-oocyte complexes. To examine such effects, substances can be administered in vivo and, after ovulation of cumulus-oocyte complexes, the latter are subjected to in-vitro fertilization. The in-vitro fertilization rate in the absence of test substance allows conclusions to be drawn on the in-vivo effects of the test substances.
Immature female mice (strain: B6D2F1, Charles River, Suelzfeld, age: 19-25 days) were kept in Makrolon cages in rooms with controlled lighting (12 hours of darkness: 12 hours of light), fed with a standard diet and provided with water ad libitum.
The mice were primed with PMSG (Pregnant Mare Serum Gonadotropin) (10 IU/animal i.p.). After 48 hours, by administration of 10 IU/animal i.p., an ovulation-triggering stimulus (hCG, human Chorion Gonadotropin) was generated in the animals. EP2 receptor antagonists were dissolved in benzyl benzoate/castor oil (1+4 v/v) and administered in a volume of 0.1 ml s.c. 1 hour prior to hCG (n=5 animals per group). The COX inhibitor was suspended in a carrier liquid (85 mg of Myrj®53 polyoxyl(50)stearate; CAS No. 9004-99-3) in 100 ml of 0.9% w/v NaCl solution), and the appropriate dose was administered in a volume of 2 ml/kg of body weight orally 1 hour prior to hCG. Fourteen hours after administration of hCG, the animals were sacrificed. Ovulated oocytes and cumulus-oocyte complexes were obtained from the ovarii bursa and/or the oviduct and subjected to in-vitro fertilization, with a sperm number of 40 000 sperms/0.5 ml for 1 hour being used for fertilization. Twenty-four hours after incubation with the sperms, the number of fertilized oocytes and the number of 2-cell embryos per animal were determined.

[3] = test system: fertilizability of ovulated cumulus-oocyte complexes; test: In-vivo action on post-ovulatory in-vitro fertilization; design: species or system mice (strain: B6D2F1); conditions: 1-10 mg/kg s.c.
Excerpt: 4.3 In-Vivo Action on Post-Ovulatory In-Vitro Fertilization:
Substances can exert an influence on fertility by decreasing the fertilizability of oocytes or cumulus-oocyte complexes. In order to study such effects, substances can be administered in vivo and subjected to in vitro fertilization after ovulation of cumulus-oocyte complexes has taken place. The in-vitro fertilization rate, where no test substance is any longer present, allows conclusions as to the in-vivo effects of the test substances.
Immature female mice (strain: B6D2F1, Charles River, Suelzfeld, age: 19-25 days) were kept in Macrolon cages in rooms with controlled illumination (12 hrs darkness: 12 hrs light), fed with a standard diet and provided with drinking water ad libitum.
The mice were primed with PMSG (pregnant mare serum gonadotropin) (10 IU/animal i.p.). After 48 hours, a stimulus triggering ovulation was created in the animals by one administration of 10 IU/animal i.p. (hCG, human chorionic gonadotropin). The test substances were dissolved in benzyl benzoate/castor oil (1+4 v/v) and administered in a volume of 0.1 ml s.c. 1 hour before hCG (n=5 animals per group). Fourteen hours after hCG administration, the animals were killed. […] Twenty-four hours after the incubation with the sperms, the number of fertilized oocytes is established and the percentage fertilization rate determined

[4] = test system: fertility of the female rat; test: Single administration of EP2 receptor antagonists and COX inhibitors alone or in combination, fertility of the rat (implantation sites); assay type: in vivo, female Han Wistar rats
Procedure: 6. Effect of a Single Administration of EP2 Receptor Antagonists and COX Inhibitors Alone or in Combination on the Fertility of the Rat
In the experiments below, female Han Wistar rats having a weight of 200-270 g were used. The animals were kept in Makrolon cages in rooms with controlled lighting (12 hours of darkness; 12 hours of light), fed with a standard diet and provided with water ad libitum.
EP2 receptor antagonists were dissolved in benzyl benzoate/castor oil (1+4 v/v), and the dose was administered in a volume of 1 ml/kg of body weight s.c. Optionally, EP2 receptor antagonists were also administered orally in the same vehicle as the COX inhibitors (see below). […]
The COX inhibitors were suspended in a carrier liquid (85 mg of Myrj®53 polyoxyl(50)stearate; CAS No. 9004-99-3) in 100 ml of 0.9% w/v NaCl solution), and the dose corresponding to the treatment group was administered in a volume of 2 ml/kg of body weight.
Prior to the start of the experiment, two cycles were observed using vaginal swabs. Only animals having a regular 4-day cycle were used in the experiment. The animals were randomized to the treatment groups.
The animals were treated once in the proestrus, the day in the cycle when the LH peak occurs in the evening, with the test substances either alone or in combination. On the evening of the proestrus, the female animals mated with a male rat. Successive mating was confirmed by detection of vaginal sperms in the vaginal swab the next morning. The effect on fertility was determined 9-15 days after mating by the number of implantation sites of the animals. […]

ovulation = conditions: cited from earlier work
[5] = single administration in proestrus, Indomethacin 1 mg/animal, 16:00
[6] = Table 6.3, proestrus, Piroxicam 2 mg/animal, 12:30
[7] = single administration in proestrus, Piroxicam 2 mg/animal, 7:00
[8] = single administration in proestrus, Piroxicam 2 mg/animal, 13:00
[9] = single administration in proestrus, Piroxicam 2 mg/animal, 18:00, data of n = 5 animals

- IC50 [1]: > 50 nM
SMILES: Cc1c(C(=O)NCC(F)(F)F)ccc2nn(CC3CCN(C(=O)c4ccc(Oc5ccc(C(F)(F)F)cc5)cc4)CC3)cc12 [Example E126, 4-methyl-N-(2,2,2-trifluoroethyl)-2-[(1-{4-[4-(trifluoromethyl)phenoxy]benzoyl}piperidin-4-yl)methyl]-2H-indazole-5-carboxamide]
- 2-Cell embryos per animal (mean ± SD) ([2]; E126 0.1 mg/animal s.c. 1 hour prior to hCG): 30.8 ± 7.3
- 2-Cell embryos per animal (mean ± SD) ([2]; E126 0.5 mg/animal s.c. 1 hour prior to hCG): 12.6 ± 3.6

SMILES: COCCNC(=O)c1ccc2nn(CC3CCN(C(=O)c4ccc(Oc5ccc(C(F)(F)F)cc5)cc4)CC3)cc2c1C [Example 17, N-(2-methoxyethyl)-4-methyl-2-[(1-{4-[4-(trifluoromethyl)phenoxy]benzoyl}piperidin-4-yl)methyl]-2H-indazole-5-carboxamide]
- influence on the fertilizability of ovulated cumulus-oocyte complexes [3]: dose-dependent influence on the fertilizability of ovulated cumulus-oocyte complexes

SMILES: COc1ccc2c(c1)c(CC(=O)O)c(C)n2C(=O)c1ccc(Cl)cc1 [Indomethacin, indomethacin, reference compound]
- Absolute implantations number of 6 animals [4, 5]: 67
- Implantations per animal (mean ± SD) [4, 5]: 11.2 ± 2.9
- effect on ovulation (ovulation; 2×100 mg per day over 5 days (Killick and Elstein 1987)): inhibition of ovulation
- delay of ovulation (ovulation; 3×50 mg per day for at least 3 days, 6 women, in 5 cases (Athanasious et al.)): 2 to 12 days

SMILES: CN1C(C(=O)Nc2ccccn2)=C(O)c2ccccc2S1(=O)=O [Piroxicam, piroxicam, reference compound]
- Absolute implantations number of 6 animals [4, 6]: 71
- Implantations per animal (mean ± SD) [4, 6]: 11.8 ± 3.7
- Absolute implantations number of 6 animals [4, 7]: 81
- Implantations per animal (mean ± SD) [4, 7]: 13.5 ± 1.0
- Absolute implantations number of 6 animals [4, 8]: 68
- Implantations per animal (mean ± SD) [4, 8]: 11.3 ± 1.6
- Absolute implantations number of 6 animals [4, 9]: 53*
- Implantations per animal (mean ± SD) [4, 9]: 10.6 ± 1.5
- 2-Cell embryos per animal (mean ± SD) ([2]; Piroxicam 0.1 mg/animal orally 1 hour prior to hCG): 10.8 ± 3.8
